Assays:
[1] = molecular target: T1, human recombinant histamine H2 receptor (Homo sapiens, UniProt P25021); assay: Histamine H2 radioligand binding ([125I]Aminopotentidine); conditions: percent inhibition of specific binding; screened at 1 μM; read-out: Inhibition of ligand binding, Hist. H2
T1 construct: expressed in transfected cells; host or cells: CHO-K1 cells
Summary of the method: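 This radioligand binding assay measured displacement of [125I]Aminopotentidine from recombinant human histamine H2 receptors. Compounds were dissolved in 1% DMSO vehicle. Specific binding was calculated by subtracting non-specific binding, defined using 3 μM Tiotidine, and activity was reported as percentage inhibition of that specific binding.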

[2] = molecular target: T2, human recombinant adrenergic α2B receptor (Homo sapiens, UniProt P18089); assay: Adrenergic α2B radioligand binding ([3H]Rauwolscine); design: Inhibition of ligand binding, Adren. alpha2B: concentration or dose not given beside the values; conditions: percent inhibition of specific binding
T2 construct: expressed in transfected cells; host or cells: CHO-K1 cells
T2 sequence (P18089 1-450): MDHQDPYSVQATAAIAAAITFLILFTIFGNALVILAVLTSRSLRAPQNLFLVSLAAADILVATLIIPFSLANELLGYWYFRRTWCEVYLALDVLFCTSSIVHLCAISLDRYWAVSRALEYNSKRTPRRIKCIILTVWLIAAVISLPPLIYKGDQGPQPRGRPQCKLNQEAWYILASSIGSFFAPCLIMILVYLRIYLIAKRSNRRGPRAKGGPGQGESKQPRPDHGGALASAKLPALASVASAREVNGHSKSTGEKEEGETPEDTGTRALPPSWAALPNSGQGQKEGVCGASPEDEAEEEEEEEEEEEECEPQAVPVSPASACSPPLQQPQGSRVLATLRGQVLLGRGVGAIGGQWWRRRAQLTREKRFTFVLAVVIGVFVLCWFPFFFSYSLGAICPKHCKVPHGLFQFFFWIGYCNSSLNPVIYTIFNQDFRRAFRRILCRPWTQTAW
Summary of the method: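 Incubation ran 60 minutes at 25 °C in modified Tris-HCl buffer (50 mM, pH 7.4, 12.5 mM MgCl2, 1 mM EDTA, 0.2% BSA) using CHO-K1-expressed human receptor.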

[3] = molecular target: T3, human recombinant serotonin (5-Hydroxytryptamine) 5-HT2A receptor (Homo sapiens, UniProt P28223); assay: Serotonin 5-HT2A radioligand binding ([3H]Ketanserin); conditions: percent inhibition of specific binding
T3 construct: expressed in transfected cells; host or cells: CHO-K1 cells
T3 sequence (P28223 whole entry): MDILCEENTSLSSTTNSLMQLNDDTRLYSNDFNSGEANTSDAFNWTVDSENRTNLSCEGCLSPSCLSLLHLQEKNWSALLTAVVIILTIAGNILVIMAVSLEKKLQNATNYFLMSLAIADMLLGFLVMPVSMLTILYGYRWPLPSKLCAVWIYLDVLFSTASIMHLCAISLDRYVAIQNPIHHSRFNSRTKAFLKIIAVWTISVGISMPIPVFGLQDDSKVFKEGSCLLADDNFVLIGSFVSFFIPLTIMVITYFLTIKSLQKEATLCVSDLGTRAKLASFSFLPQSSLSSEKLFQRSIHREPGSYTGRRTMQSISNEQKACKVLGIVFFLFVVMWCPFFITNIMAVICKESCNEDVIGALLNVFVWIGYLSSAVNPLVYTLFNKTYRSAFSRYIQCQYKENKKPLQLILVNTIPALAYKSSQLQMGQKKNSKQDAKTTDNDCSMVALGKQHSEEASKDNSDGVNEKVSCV
Procedure: (§1) Compounds of the invention were incubated with 0.5 nM [^3H]Ketanserin for 60 minutes at 25° C. Non-specific binding was estimated in the presence of 1 μM Mianserin. Receptor proteins were filtered and washed, the filters were then counted to determine [^3H]Ketanserin specifically bound. […] Biochemical assay results are presented as the percent inhibition of specific binding in Table 6.

[4] = molecular target: T4, human recombinant serotonin (5-Hydroxytryptamine) 5-HT2C receptor (Homo sapiens, UniProt P28335); assay: Serotonin 5-HT2C radioligand binding ([3H]Mesulergine); design: Inhibition of ligand binding, Ser. 5-HT2C: concentration or dose not given beside the values; conditions: percent inhibition of specific binding
T4 construct: expressed in transfected cells; host or cells: CHO-K1 cells
T4 sequence (P28335 33-458): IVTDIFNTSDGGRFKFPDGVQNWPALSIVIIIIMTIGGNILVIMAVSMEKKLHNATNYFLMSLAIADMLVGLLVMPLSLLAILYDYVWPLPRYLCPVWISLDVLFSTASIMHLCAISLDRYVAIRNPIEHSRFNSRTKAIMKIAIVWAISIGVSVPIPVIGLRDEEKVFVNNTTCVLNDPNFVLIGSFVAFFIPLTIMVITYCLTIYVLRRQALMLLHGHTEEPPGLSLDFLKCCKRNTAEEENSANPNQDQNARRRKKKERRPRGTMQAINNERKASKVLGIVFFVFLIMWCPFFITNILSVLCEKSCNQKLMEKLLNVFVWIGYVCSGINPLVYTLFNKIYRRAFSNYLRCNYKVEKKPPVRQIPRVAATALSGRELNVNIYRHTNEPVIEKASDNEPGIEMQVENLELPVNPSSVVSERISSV
Procedure: as §1, with “1” for “0.5”, “[^3H]Mesulergine” for “[^3H]Ketanserin”

[5] = molecular target: T5, human recombinant serotonin (5-Hydroxytryptamine) 5-HT6 receptor (Homo sapiens, UniProt P50406); assay: Serotonin 5-HT6 radioligand binding ([3H]LSD); design: Inhibition of ligand binding, Ser. 5-HT6: concentration or dose not given beside the values; conditions: percent inhibition of specific binding
T5 construct: expressed in transfected cells; host or cells: human HeLa cells
T5 sequence (P50406 whole entry): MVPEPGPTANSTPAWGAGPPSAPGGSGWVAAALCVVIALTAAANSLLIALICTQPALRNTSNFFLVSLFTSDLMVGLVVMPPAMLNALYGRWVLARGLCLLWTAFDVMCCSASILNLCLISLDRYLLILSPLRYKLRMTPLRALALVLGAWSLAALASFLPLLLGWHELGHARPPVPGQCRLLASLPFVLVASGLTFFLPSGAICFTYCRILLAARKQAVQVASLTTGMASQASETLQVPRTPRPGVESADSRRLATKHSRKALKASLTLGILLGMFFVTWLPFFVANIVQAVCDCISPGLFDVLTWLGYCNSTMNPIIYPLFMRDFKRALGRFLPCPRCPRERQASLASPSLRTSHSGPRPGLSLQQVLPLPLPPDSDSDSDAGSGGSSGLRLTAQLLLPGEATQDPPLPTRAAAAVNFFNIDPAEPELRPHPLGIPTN
Text: Receptor proteins were filtered and washed, the filters were then counted to determine [3H]LSD specifically bound. […] Biochemical assay results are presented as the percent inhibition of specific binding in Table 6.

[6] = molecular target: T6, Serotonin (5-Hydroxytryptamine) 5-HT7 (Homo sapiens, UniProt P34969); assay: Serotonin 5-HT7 radioligand binding ([3H]LSD); design: Inhibition of ligand binding, Ser. 5-HT7: concentration or dose not given beside the values; conditions: percent inhibition of specific binding
T6 construct: expressed in transfected cells; host or cells: CHO cells
T6 sequence (P34969 whole entry): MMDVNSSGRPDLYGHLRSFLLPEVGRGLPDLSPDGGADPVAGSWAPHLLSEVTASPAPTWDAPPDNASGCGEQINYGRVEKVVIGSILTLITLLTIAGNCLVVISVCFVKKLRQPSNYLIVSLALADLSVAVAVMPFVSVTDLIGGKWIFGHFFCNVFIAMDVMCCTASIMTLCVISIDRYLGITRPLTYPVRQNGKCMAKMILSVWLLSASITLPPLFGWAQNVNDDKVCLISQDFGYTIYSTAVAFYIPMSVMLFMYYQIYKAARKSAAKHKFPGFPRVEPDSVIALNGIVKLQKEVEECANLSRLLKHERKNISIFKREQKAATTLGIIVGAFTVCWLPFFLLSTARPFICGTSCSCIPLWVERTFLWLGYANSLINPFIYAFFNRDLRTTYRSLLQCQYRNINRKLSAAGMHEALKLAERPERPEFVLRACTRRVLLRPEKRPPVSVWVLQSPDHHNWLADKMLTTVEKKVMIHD
Procedure: Lysergic acid diethylamide (LSD) for 2 hours at 25° C. […] Receptor proteins were filtered and washed, the filters were then counted to determine [^3H]LSD specifically bound. […] Biochemical assay results are presented as the percent inhibition of specific binding in Table 6.

[7] = molecular target: T7, human recombinant dopamine D2L receptor (Homo sapiens, UniProt P14416); assay: Dopamine D2L radioligand binding ([3H]Spiperone); conditions: percent inhibition of specific binding
T7 construct: expressed in transfected cells; host or cells: CHO cells
T7 sequence (P14416 whole entry): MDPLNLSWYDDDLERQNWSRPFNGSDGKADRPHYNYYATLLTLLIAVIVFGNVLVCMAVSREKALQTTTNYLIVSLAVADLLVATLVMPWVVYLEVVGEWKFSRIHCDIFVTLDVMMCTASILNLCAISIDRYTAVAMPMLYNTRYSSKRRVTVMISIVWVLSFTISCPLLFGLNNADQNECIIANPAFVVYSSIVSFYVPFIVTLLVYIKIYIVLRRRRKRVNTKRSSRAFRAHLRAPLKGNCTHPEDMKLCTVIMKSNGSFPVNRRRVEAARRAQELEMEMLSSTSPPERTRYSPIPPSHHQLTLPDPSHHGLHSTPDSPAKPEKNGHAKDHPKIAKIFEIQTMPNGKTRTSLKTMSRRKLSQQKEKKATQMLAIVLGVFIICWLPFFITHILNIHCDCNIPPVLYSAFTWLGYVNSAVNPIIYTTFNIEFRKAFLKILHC
Procedure: Non-specific binding was estimated in the presence of 10 μM Haloperidol. Receptor proteins were filtered and washed, the filters were then counted to determine [^3H]Spiperone specifically bound. […] Biochemical assay results are presented as the percent inhibition of specific binding in Table 6.

T1 sequence (P25021 whole entry): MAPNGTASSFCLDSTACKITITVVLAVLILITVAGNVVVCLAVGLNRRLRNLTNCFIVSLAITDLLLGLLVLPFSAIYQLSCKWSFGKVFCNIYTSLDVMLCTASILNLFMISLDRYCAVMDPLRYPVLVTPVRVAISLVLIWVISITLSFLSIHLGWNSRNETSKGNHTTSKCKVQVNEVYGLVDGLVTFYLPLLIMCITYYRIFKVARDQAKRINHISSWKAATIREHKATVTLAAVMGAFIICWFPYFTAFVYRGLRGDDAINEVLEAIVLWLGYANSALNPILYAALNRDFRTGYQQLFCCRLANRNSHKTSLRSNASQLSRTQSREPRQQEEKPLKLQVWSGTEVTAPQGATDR

SMILES | inhibition at 1 µM [1] | Inhibition of ligand binding, Adren. alpha2B [2] | Inhibition of ligand binding, Ser. 5-HT2A [3] | Inhibition of ligand binding, Ser. 5-HT2C [4] | Inhibition of ligand binding, Ser. 5-HT6 [5] | Inhibition of ligand binding, Ser. 5-HT7 [6] | Inhibition of ligand binding, Dop. D2L [7]
Cc1ccc(CCn2c3c(c4cc(Cl)ccc42)CN(C)CC3)cc1 [Compound 43] | 100% | 108% | 99% | 100% | 102% | 92% | –
CN1CCc2c(c3cc(Cl)ccc3n2CCc2ccc(Cl)cc2)C1 [Compound 45, 5-(4-chlorophenethyl)-8-chloro-2,3,4,5-tetrahydro-2-methyl-1H-pyrido[4,3-b]indole] | 98% | 102% | 100% | 97% | 103% | 99% | –
Cc1ccc(CCn2c3c(c4cc(C(F)(F)F)ccc42)CN(C)CC3)cc1 [Compound 47] | 78% | 101% | 92% | 89% | 99% | 92% | –
Cc1ccc2c(c1)c1c(n2CCc2ccc(C)nc2)CCN(C2CC2)C1 [Compound 51] | 17% | 10% | 0% | 2% | 6% | 17% | –
Cc1ccc(CCn2c3c(c4cc(C(F)(F)F)ccc42)CN(C)CC3)cn1 [Compound 53] | 4% | 34% | −1% | 12% | 18% | 49% | –
CN1CCc2c(c3cc(C(F)(F)F)ccc3n2CCc2ccccc2)C1 [Compound 80, 8-(trifluoromethyl)-2,3,4,5-tetrahydro-2-methyl-5-phenethyl-1H-pyrido[4,3-b]indole] | 71% | 105% | 88% | 90% | 101% | 92% | –
CN1CCc2c(c3c(Cl)cccc3n2CCc2ccccc2)C1 [Compound 81] | 57% | 90% | 99% | 98% | 86% | 89% | –
CN1CCc2c(c3ccc(Cl)cc3n2CCc2ccccc2)C1 [Compound 82] | 99% | 99% | 99% | 95% | 103% | 100% | –
CN1CCc2c(c3cccc(Cl)c3n2CCc2ccccc2)C1 [Compound 83] | 97% | 96% | 100% | 99% | 106% | 95% | –
CN1CCc2c(c3cc(Cl)ccc3n2CCc2ccc(F)cc2)C1 [Compound 162, 5-(4-fluorophenethyl)-8-chloro-2,3,4,5-tetrahydro-2-methyl-1H-pyrido[4,3-b]indole] | 94% | 112% | 98% | 94% | 99% | 94% | –
CN1CCc2c(c3cc(Cl)ccc3n2CCC2CCCCC2)C1 [Compound 164, 8-chloro-5-(2-cyclohexylethyl)-2,3,4,5-tetrahydro-2-methyl-1H-pyrido[4,3-b]indole] | 84% | 93% | 91% | 95% | 99% | 92% | –
CN1CCc2c(c3cc(Cl)ccc3n2CCN2CCOCC2)C1 [Compound 186, 8-chloro-2,3,4,5-tetrahydro-2-methyl-5-(2-morpholinoethyl)-1H-pyrido[4,3-b]indole] | 25% | 79% | 84% | 89% | 83% | 57% | –
CN1CCc2c(c3c(Cl)cccc3n2CCC2CCCCC2)C1 [Compound 187, 9-chloro-5-(2-cyclohexylethyl)-2,3,4,5-tetrahydro-2-methyl-1H-pyrido[4,3-b]indole] | 69% | 57% | 84% | 77% | 53% | 77% | –
CN1CCc2c(c3ccc(Cl)cc3n2CCC2CCCCC2)C1 [Compound 188, 7-chloro-5-(2-cyclohexylethyl)-2,3,4,5-tetrahydro-2-methyl-1H-pyrido[4,3-b]indole] | 72% | 65% | 58% | 66% | 67% | 41% | –
Cc1ccc2c(c1)c1c(n2CC(=O)N2CCN(C)CC2)CCN(C)C1 [Compound 459, 2-(1,2,3,4-tetrahydro-2,8-dimethylpyrido[4,3-b]indol-5-yl)-1-(4-methylpiperazin-1-yl)ethanone] | -4% | −20% | 1% | 3% | −10% | – | −7%
CCCc1ccc(CCn2c3c(c4cc(Cl)ccc42)CN(C)CC3)cn1 [Compound 476, 8-chloro-2,3,4,5-tetrahydro-2-methyl-5-(2-(6-propylpyridin-3-yl)ethyl)-1H-pyrido[4,3-b]indole] | 96% | 97% | 100% | 96% | 87% | – | 30%

— US9096591B2, “Tetracyclic compounds” (Medivation Technologies, Inc., priority 2007, dated 2015)
